Data published in patent publication US12491170B2, “Stable treprostinil prodrugs” (United Therapeutics Corporation, priority 2020, dated 2025).
Read-outs that look alike come from different tables or passages of the source.

Experiments:
[1] = Stability in liver microsomes, human; details: for AUC: human
[2] = Stability in liver microsomes, rat
[3] = Stability in liver microsomes, dog
[4] = Stability in cryopreserved hepatocytes, human; details: for AUC: human
[5] = Stability in cryopreserved hepatocytes, rat; details: for AUC: rat
[6] = Stability in cryopreserved hepatocytes, dog; details: for AUC: dog
[7] = rat
[8] = dog

CCCCCC(CCC1C(O)CC2Cc3c(cccc3OCC(=O)O)CC21)OC(=O)c1ccc(C(F)(F)F)cc1 (stereo not drawn) [LXII]
Trep Concentration 0 min [1]: 0.0917 µM
Trep Concentration 10 min [1]: 0.141 µM
Trep Concentration 20 min [1]: 0.174 µM
Trep Concentration 30 min [1]: 0.2 µM
Trep Concentration 60 min [1]: 0.206 µM
AUC [1]: 10.70 µmol·min/L
Trep Concentration 0 min [2]: 0.0741 µM
Trep Concentration 10 min [2]: 0.0998 µM
Trep Concentration 20 min [2]: 0.124 µM
Trep Concentration 30 min [2]: 0.139 µM
Trep Concentration 60 min [2]: 0.139 µM
Trep Concentration 0 min [3]: 0.127 µM
Trep Concentration 10 min [3]: 0.188 µM
Trep Concentration 20 min [3]: 0.254 µM
Trep Concentration 30 min [3]: 0.3 µM
Trep Concentration 60 min [3]: 0.372 µM
Trep Concentration (μM) 0 min [4]: 0 µM
Trep Concentration (μM) 15 min [4]: 0.0881 µM
Trep Concentration (μM) 30 min [4]: 0.14 µM
Trep Concentration (μM) 60 min [4]: 0.194 µM
Trep Concentration (μM) 120 min [4]: 0.222 µM
AUC [4]: 19.86 µmol·min/L
Trep Concentration (μM) 0 min [5]: 0.00378 µM
Trep Concentration (μM) 15 min [5]: 0.0946 µM
Trep Concentration (μM) 30 min [5]: 0.156 µM
Trep Concentration (μM) 60 min [5]: 0.227 µM
Trep Concentration (μM) 120 min [5]: 0.264 µM
AUC [5]: 23.09 µmol·min/L
Trep Concentration (μM) 0 min [6]: 0 µM
Trep Concentration (μM) 15 min [6]: 0.0486 µM
Trep Concentration (μM) 30 min [6]: 0.0833 µM
Trep Concentration (μM) 60 min [6]: 0.128 µM
Trep Concentration (μM) 120 min [6]: 0.166 µM
AUC [6]: 13.34 µmol·min/L
AUC [7]: 7.47 µmol·min/L
AUC [8]: 16.64 µmol·min/L

CCCCCC(CCC1C(O)CC2Cc3c(cccc3OCC(=O)O)CC21)OC(=O)C12CC3CC(CC(C3)C1)C2 (stereo not drawn) [LXIX]
Trep Concentration 0 min [1]: 0.321 µM
Trep Concentration 10 min [1]: 0.365 µM
Trep Concentration 20 min [1]: 0.367 µM
Trep Concentration 30 min [1]: 0.36 µM
Trep Concentration 60 min [1]: 0.252 µM
AUC [1]: 19.91 µmol·min/L
Trep Concentration 0 min [2]: 0.0251 µM
Trep Concentration 10 min [2]: 0.0344 µM
Trep Concentration 20 min [2]: 0.0421 µM
Trep Concentration 30 min [2]: 0.0483 µM
Trep Concentration 60 min [2]: 0.0527 µM
Trep Concentration 0 min [3]: 0.517 µM
Trep Concentration 10 min [3]: 0.57 µM
Trep Concentration 20 min [3]: 0.609 µM
Trep Concentration 30 min [3]: 0.696 µM
Trep Concentration 60 min [3]: 0.657 µM
Trep Concentration (μM) 0 min [4]: 0 µM
Trep Concentration (μM) 15 min [4]: 0.198 µM
Trep Concentration (μM) 30 min [4]: 0.294 µM
Trep Concentration (μM) 60 min [4]: 0.338 µM
Trep Concentration (μM) 120 min [4]: 0.335 µM
AUC [4]: 34.85 µmol·min/L
Trep Concentration (μM) 0 min [5]: 0 µM
Trep Concentration (μM) 15 min [5]: 0.0238 µM
Trep Concentration (μM) 30 min [5]: 0.0421 µM
Trep Concentration (μM) 60 min [5]: 0.0712 µM
Trep Concentration (μM) 120 min [5]: 0.119 µM
AUC [5]: 8.08 µmol·min/L
Trep Concentration (μM) 0 min [6]: 0.00877 µM
Trep Concentration (μM) 15 min [6]: 0.227 µM
Trep Concentration (μM) 30 min [6]: 0.262 µM
Trep Concentration (μM) 60 min [6]: 0.263 µM
Trep Concentration (μM) 120 min [6]: 0.236 µM
AUC [6]: 28.28 µmol·min/L
AUC [7]: 2.65 µmol·min/L
AUC [8]: 38.15 µmol·min/L

CCCCCC(CCC1C(O)CC2Cc3c(cccc3OCC(=O)O)CC21)OC(=O)c1ccccc1O (stereo not drawn) [LXI]
Trep Concentration 0 min [1]: 0.0209 µM
Trep Concentration 10 min [1]: 0.0312 µM
Trep Concentration 20 min [1]: 0.0361 µM
Trep Concentration 30 min [1]: 0.0389 µM
Trep Concentration 60 min [1]: 0.0332 µM
AUC [1]: 2.05 µmol·min/L
Trep Concentration 0 min [2]: 0 µM
Trep Concentration 10 min [2]: 0 µM
Trep Concentration 20 min [2]: 0.00316 µM
Trep Concentration 30 min [2]: 0.00337 µM
Trep Concentration 60 min [2]: 0.00402 µM
Trep Concentration 0 min [3]: 0.00725 µM
Trep Concentration 10 min [3]: 0.0115 µM
Trep Concentration 20 min [3]: 0.0157 µM
Trep Concentration 30 min [3]: 0.0196 µM
Trep Concentration 60 min [3]: 0.0259 µM
Trep Concentration (μM) 0 min [4]: 0 µM
Trep Concentration (μM) 15 min [4]: 0.0213 µM
Trep Concentration (μM) 30 min [4]: 0.0378 µM
Trep Concentration (μM) 60 min [4]: 0.0556 µM
Trep Concentration (μM) 120 min [4]: 0.0701 µM
AUC [4]: 5.78 µmol·min/L
Trep Concentration (μM) 0 min [5]: 0 µM
Trep Concentration (μM) 15 min [5]: 0 µM
Trep Concentration (μM) 30 min [5]: 0.00373 µM
Trep Concentration (μM) 60 min [5]: 0.00634 µM
Trep Concentration (μM) 120 min [5]: 0.00941 µM
AUC [5]: 0.65 µmol·min/L
Trep Concentration (μM) 0 min [6]: 0 µM
Trep Concentration (μM) 15 min [6]: 0 µM
Trep Concentration (μM) 30 min [6]: 0.00299 µM
Trep Concentration (μM) 60 min [6]: 0.00396 µM
Trep Concentration (μM) 120 min [6]: 0.00663 µM
AUC [6]: 0.44 µmol·min/L
AUC [7]: 0.16 µmol·min/L
AUC [8]: 1.09 µmol·min/L

CCCCCC(CCC1C(O)CC2Cc3c(cccc3OCC(=O)O)CC21)OC(=O)c1ccc(O)cc1 (stereo not drawn) [LXVIII]
Trep Concentration 0 min [1]: 0.201 µM
Trep Concentration 10 min [1]: 0.237 µM
Trep Concentration 20 min [1]: 0.246 µM
Trep Concentration 30 min [1]: 0.252 µM
Trep Concentration 60 min [1]: 0.178 µM
AUC [1]: 13.55 µmol·min/L
Trep Concentration 0 min [2]: 0.00607 µM
Trep Concentration 10 min [2]: 0.00792 µM
Trep Concentration 20 min [2]: 0.0105 µM
Trep Concentration 30 min [2]: 0.0127 µM
Trep Concentration 60 min [2]: 0.0145 µM
Trep Concentration 10 min [3]: 0.0246 µM
Trep Concentration 20 min [3]: 0.0324 µM
Trep Concentration 30 min [3]: 0.0375 µM
Trep Concentration 60 min [3]: 0.0382 µM
Trep Concentration (μM) 0 min [4]: 0 µM
Trep Concentration (μM) 15 min [4]: 0.147 µM
Trep Concentration (μM) 30 min [4]: 0.194 µM
Trep Concentration (μM) 120 min [4]: 0.17 µM
AUC [4]: 20.45 µmol·min/L
Trep Concentration (μM) 0 min [5]: 0 µM
Trep Concentration (μM) 15 min [5]: 0 µM
Trep Concentration (μM) 30 min [5]: 0.00403 µM
Trep Concentration (μM) 60 min [5]: 0.00545 µM
Trep Concentration (μM) 120 min [5]: 0.00743 µM
AUC [5]: 0.56 µmol·min/L
Trep Concentration (μM) 0 min [6]: 0 µM
Trep Concentration (μM) 15 min [6]: 0.0142 µM
Trep Concentration (μM) 30 min [6]: 0.00583 µM
Trep Concentration (μM) 60 min [6]: 0.00715 µM
Trep Concentration (μM) 120 min [6]: 0.0129 µM
AUC [6]: 1.05 µmol·min/L
AUC [7]: 0.69 µmol·min/L
AUC [8]: 1.98 µmol·min/L

CCCCCC(CCC1C(O)CC2Cc3c(cccc3OCC(=O)O)CC21)OC(=O)c1ccc(O)c(O)c1 (stereo not drawn) [LXVI]
Trep Concentration 0 min [1]: 0.0131 µM
Trep Concentration 10 min [1]: 0.0155 µM
Trep Concentration 30 min [1]: 0.0168 µM
Trep Concentration 60 min [1]: 0.0141 µM
AUC [1]: 0.94 µmol·min/L
Trep Concentration 0 min [2]: 0 µM
Trep Concentration 10 min [2]: 0.00332 µM
Trep Concentration 20 min [2]: 0.00368 µM
Trep Concentration 30 min [2]: 0.00422 µM
Trep Concentration 60 min [2]: 0.00722 µM
Trep Concentration 0 min [3]: 0 µM
Trep Concentration 10 min [3]: 0 µM
Trep Concentration 20 min [3]: 0 µM
Trep Concentration 30 min [3]: 0.00396 µM
Trep Concentration 60 min [3]: 0.00602 µM
Trep Concentration (μM) 0 min [4]: 0 µM
Trep Concentration (μM) 15 min [4]: 0.0209 µM
Trep Concentration (μM) 30 min [4]: 0.0147 µM
Trep Concentration (μM) 60 min [4]: 0.0184 µM
Trep Concentration (μM) 120 min [4]: 0.0237 µM
AUC [4]: 2.18 µmol·min/L
Trep Concentration (μM) 0 min [5]: 0 µM
Trep Concentration (μM) 15 min [5]: 0 µM
Trep Concentration (μM) 30 min [5]: 0 µM
Trep Concentration (μM) 60 min [5]: 0 µM
Trep Concentration (μM) 120 min [5]: 0 µM
AUC [5]: 0.00 µmol·min/L
Trep Concentration (μM) 0 min [6]: 0 µM
Trep Concentration (μM) 15 min [6]: 0 µM
Trep Concentration (μM) 30 min [6]: 0 µM
Trep Concentration (μM) 60 min [6]: 0 µM
Trep Concentration (μM) 120 min [6]: 0.00519 µM
AUC [6]: 0.16 µmol·min/L
AUC [7]: 0.26 µmol·min/L
AUC [8]: 0.17 µmol·min/L

CCCCCC(CCC1C(O)CC2Cc3c(cccc3OCC(=O)O)CC21)OC(=O)COc1ccccc1 (stereo not drawn) [LXV]
Trep Concentration 0 min [1]: 0.921 µM
Trep Concentration 10 min [1]: 0.762 µM
Trep Concentration 20 min [1]: 0.67 µM
Trep Concentration 30 min [1]: 0.594 µM
Trep Concentration 60 min [1]: 0.351 µM
AUC [1]: 36.07 µmol·min/L
Trep Concentration 0 min [2]: 0.889 µM
Trep Concentration 10 min [2]: 0.898 µM
Trep Concentration 20 min [2]: 0.885 µM
Trep Concentration 30 min [2]: 0.888 µM
Trep Concentration 60 min [2]: 0.738 µM
Trep Concentration 0 min [3]: 0.903 µM
Trep Concentration 10 min [3]: 0.912 µM
Trep Concentration 20 min [3]: 0.864 µM
Trep Concentration 30 min [3]: 0.801 µM
Trep Concentration 60 min [3]: 0.728 µM
Trep Concentration (μM) 0 min [4]: 0.0193 µM
Trep Concentration (μM) 15 min [4]: 0.559 µM
Trep Concentration (μM) 30 min [4]: 0.515 µM
Trep Concentration (μM) 60 min [4]: 0.452 µM
Trep Concentration (μM) 120 min [4]: 0.39 µM
AUC [4]: 52.16 µmol·min/L
Trep Concentration (μM) 0 min [5]: 0.0517 µM
Trep Concentration (μM) 15 min [5]: 0.379 µM
Trep Concentration (μM) 30 min [5]: 0.289 µM
Trep Concentration (μM) 60 min [5]: 0.237 µM
Trep Concentration (μM) 120 min [5]: 0.2 µM
AUC [5]: 29.24 µmol·min/L
Trep Concentration (μM) 0 min [6]: 0.0135 µM
Trep Concentration (μM) 15 min [6]: 0.484 µM
Trep Concentration (μM) 30 min [6]: 0.465 µM
Trep Concentration (μM) 60 min [6]: 0.406 µM
Trep Concentration (μM) 120 min [6]: 0.373 µM
AUC [6]: 47.28 µmol·min/L
AUC [7]: 51.11 µmol·min/L
AUC [8]: 49.22 µmol·min/L
